This note sets out measurements from patent publication US20260193296A1 (priority 2023, published 2026).

Read-outs that look alike come from different tables or passages of the source. Ends that are not written are not given here.

In data set [1] the test system is Huanglongbing pathogen CLas. In kind it is cell-based, Candidatus Liberibacter asiaticus (CLas). The following applies: for CLas titer in infected leaf midribs: 1 μM artificially synthesized peptide; for number of pathogens in citrus infected with Huanglongbing: summary statement, demonstrated by experiments.
A further data set deals with CLas cells. In kind it is cell-based, Candidatus Liberibacter asiaticus (CLas). The following applies: for lysis of Huanglongbing pathogens: summary statement, demonstrated by experiments.
The next data set has as its system Huanglongbing pathogens. In kind it is in vivo, citrus (Chunmi orange). To be noted: field, whole plant, same injection method, two months after treatment; FIG. 6.
In data set [2] the test system is Huanglongbing pathogen CLas. The following applies: for IC50: read-out: CLas half inhibitory concentration (IC50), treated for 48 hours, FIG. 4C.
The subject of data set [3] is Huanglongbing pathogen CLas. In kind it is cell-based, Candidatus Liberibacter asiaticus (CLas). To be noted: for inhibitory effect on CLas after heat pretreatment: used at 1 μM, 48 h, compared with BSA, FIG. 4D.
The subject of data set [4] is Huanglongbing pathogen CLas. In kind it is in vivo, Candidatus Liberibacter asiaticus (CLas).

As for “DPMIWGYVMLNDRLSK [AMP9-16, truncated peptide of AMP9]”, the “CLas titer in infected leaf midribs” value in data set [1] (48 h, FIG. 4A) is “significantly reduce the CLas titer”. Besides, the “number of pathogens in citrus infected with Huanglongbing” value (“number of pathogens in citrus infected” for short) in data set [1] was “reduce the number of pathogens”. Further, the “lysis of Huanglongbing pathogens” value in the data set on CLas cells was “promote lysis of Huanglongbing pathogens”.

Turning to “DPMIWGYVMLNDSK [AMP-β, variant containing conserved β-sheet region; synthesized and also made by prokaryotic expression]”, in data set [1] (48 h, FIG. 4A), the “CLas titer in infected leaf midribs” value was “significantly reduce the CLas titer”. Further, the “number of pathogens in citrus infected” value in data set [1] was “reduce the number of pathogens”. For the same sequence, the “lysis of Huanglongbing pathogens” value with CLas cells is on record as “promote lysis of Huanglongbing pathogens”.

In the case of “DPMIWGYVMLSESK [AMP3-14, DPMIWGYVMLSESK]”, the “growth of new citrus leaves” value in the data set with Huanglongbing pathogens was “significantly promote the growth of new citrus leaves”. Further, the “CLas titer in infected leaf veins” value in data set [1] (100 nM artificially synthesized peptide, 48 h, FIG. 4A) was “significantly reduce the CLas titer”. In addition, the “CLas titer in infected leaf midribs” value in data set [1] (48 h, FIG. 4A) was “significantly reduce the CLas titer”. Besides, the “number of pathogens in citrus infected” value in data set [1] was “reduce the number of pathogens”. Further, in data set [2] (from IC50 values at 48 hours), the “effectiveness in reducing the CLas titer compared with AMP3” value is “more effective in reducing the CLas titer”. The IC50 in data set [2] was determined as 1 µM. In addition, the thermal stability entry in data set [3] (35° C. and 45° C. for 20 hours) is given as “good thermal stability”. Also, the “inhibitory effect on CLas after heat pretreatment” value in data set [3] (pretreated at 35° C. for 20 hours) and in data set [3] (pretreated at 45° C. for 20 hours) was “still significant” each time. Further, the “destruction of pathogenic cells compared with AMP3 (transmission electron microscope)” value in the data set on CLas cells (1 μM, 24 hours, FIG. 7) is “better effect on the destruction of pathogenic cells”. Further, the “lysis of Huanglongbing pathogens” value in the data set with CLas cells is given as “promote lysis of Huanglongbing pathogens”. The “symptoms of yellowing in leaves of infected plants” value in data set [4] (1 μM solution, continuous trunk infusion, 6 months, FIG. 5B) is recorded as “disappeared”. The “Ct value of CLas in infected plants” value in data set [4] (1 μM solution, continuous trunk infusion, 6 months, FIG. 5C) is “not significantly different from that of healthy plants”. Further, the “Ct value of CLas in treated plants after removal of treatment” value in data set [4] (treatment removed after 7 months, titer monitored continuously) is given as “still not significantly different from that of healthy plants”.

Regarding “DPMIWGYVMLSESKDPMIWGYVMLNDSK [AMP-2β, dimer of β-sheet fragments obtained by prokaryotic expression and purification]”, the “number of pathogens in citrus infected” value in data set [1] is recorded as “reduce the number of pathogens”. The “lysis of Huanglongbing pathogens” value with CLas cells was “promote lysis of Huanglongbing pathogens”.

With “MKKVKNIFHKIANA [AMP-α, contains only an α-helix fragment]”, the “CLas titer in infected leaf midribs” value in data set [1] (48 h, FIG. 4A) was “not able to change the CLas titer”.

Turning to “MKKVKNIFHKIANADPMIWGYVML [AMP3-24, truncated peptide of AMP3]”, the “number of pathogens in citrus infected” value in data set [1] is “reduce the number of pathogens”. Further, the “lysis of Huanglongbing pathogens” value with CLas cells is given as “promote lysis of Huanglongbing pathogens”.

In the case of MKKVKNIFHKIANADPMIWGYVMLNDRLSK [AMP9], the “CLas titer in infected leaf midribs” value in data set [1] (48 h, FIG. 4A) is given as “significantly reduce the CLas titer”. Besides, the “number of pathogens in citrus infected” value in data set [1] was “reduce the number of pathogens”. Besides, the “lysis of Huanglongbing pathogens” value in the data set with CLas cells is given as “promote lysis of Huanglongbing pathogens”.

With MKKVKNIFHKIANADPMIWGYVMLSESK [AMP3], the “CLas titer in infected leaf midribs” value in data set [1] (48 h, FIG. 4A) was “significantly reduce the CLas titer”. Also, the “number of pathogens in citrus infected” value in data set [1] is listed as “reduce the number of pathogens”. Also, in data set [2], the IC50 stood at 52.1 µM. For the same sequence, the “lysis of Huanglongbing pathogens” value with CLas cells was “promote lysis of Huanglongbing pathogens”.
